# Data as given in PubChem BioAssay AID2060488 (Molecular Pharmacology Branch, DTP, NCI, 2025).
# Tested on: 966289-007-R4-J1-PDC complex spheroid viability
# Experiment: Anticancer human tumor 966289-007-R4-J1-PDC patient-derived pancreatic adenocarcinoma cell line growth inhibition [GQUAD]
# Conditions: for IC50: curve of first compound; for viability, T/C: stronger effect = lower value
# From the text: DNA G-quadruplex Stabilizer Agents in Combinations in Complex Spheroids
# A high-throughput screen of multi-cell type tumor spheroids was designed to identify active combinations of DNA G-quadruplex stabilizer agents and targeted small molecules. Complex spheroids include a stromal component modeled by human endothelial cells (HUVEC) and fibroblasts modeled by human mesenchymal stem cells (MSCs). The concentration ranges selected for each drug and investigational agent were based upon clinically achievable concentrations if the clinical Cmax of the agent was known.
# Compounds. The drugs and investigational agents: pidnarulex (CX-5461; NSC782164), APTO-253 (NSC789042), BRACO-19 (NSC847499), peposertib (NSC802822), ceralasertib (NSC780249), elimusertib (NSC800525), camonsertib (NSC841442), AZD-1390 (NSC803789), olaparib (NSC753686), talazoparib (NSC767125), ART-558 (NSC835418), sotorasib (NSC818433), MRTX-1133 (NSC836407), SN-38 (NSC673596), topotecan (NSC609699), etoposide (NSC141540), doxorubicin (NSC123127), gemcitabine (NSC613327), 5-fluorouracil (NSC19893), paclitaxel (NSC125973), vemurafenib (NSC761431), panobinostat (NSC761190), R-306465 (JNJ-16241199; NSC773264), adavosertib (NSC754352), TP-3654 (NSC805149), carboplatin (NSC241240), KSQ-4279 (NSC840948), and staurosporine (NSC755774) were obtained from the National Cancer Institute (NCI) Developmental Therapeutics Program Chemical Repository (34). The FDA-approved anticancer drug set is available from the NCI Developmental Therapeutics Program. […] The stock solutions were prepared in dimethyl sulfoxide (DMSO, Sigma-Aldrich, St. Louis, MO, cat. D2650) at 800-fold the tested concentration and stored at -70 degrees C prior to their use. All drugs and investigational agents were tested over a range starting from a high concentration at or near the clinical Cmax and decreasing in half-log increments. If the clinical Cmax for an agent had not been determined, the highest concentration tested was 10 microM.
# 2.3 Cell Culture. All cells were maintained in an incubator at 37 degrees C and 5% CO2 with 95% humidity. The PDC lines were cultured according to standard operating procedures established by the NCI PDMR. All PDCs were thawed and cultured in Matrigel-coated flasks prepared with a working solution of 1X Ham's F-12 nutrient mix, without supplementation (Invitrogen, cat. 11765054), 100 U/mL penicillin-streptomycin (Invitrogen, cat. 15140122), and 2.5% Matrigel (Corning Inc., cat. 354248) for the first three passages. The 857933-349-R-J2-PDC line was cultured in 6C/Colon 1B media, which includes advanced DMEM/F-12 (Thermo Fisher Scientific, cat. 12634028), 10 mM HEPES (Thermo Fisher Scientific, cat. 15630080), 1X GlutaMAX supplement (Thermo Fisher Scientific, cat. 35050061), 0.1 mg/mL primocin (InvivoGen, cat. ant-pm-2), 10% defined fetal bovine serum, heat inactivated (HyClone Laboratories Inc., cat. SH30070.03HI), 50% L-WRN conditioned media (ATCC, cat. CRL-3276), 1.25 mM N-Acetyl-L-cysteine (Sigma-Aldrich, cat. A9165), 10 mM nicotinamide (Sigma-Aldrich, cat. N0636), 1X B-27 supplement (Thermo Fisher Scientific, cat. 17504044), 1X N-2 supplement (Thermo Fisher Scientific, cat. 17502048), 10 microM Y-27632 dihydrochloride (Tocris Bioscience, cat. 1254), and 50 ng/mL human EGF recombinant protein (Thermo Fisher Scientific, cat. PHG0311). The 485176-168-R4-J1-PDC line was cultured in Panc media, which includes all 6C/Colon 1B media components plus 100 ng/mL human FGF-10 (Thermo Fisher Scientific, cat. 100-26), 500 nM SB-431542 (Selleckchem, cat. S1067), and gastrin (Tocris, cat. 3006).
# […]
# 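Also: spheroids exposed to the agents for seven days before readout.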
# 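For viability, T/C in this document: percent viability relative to DMSO vehicle control wells taken as 100%.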
smiles,measurement,setting,value
COc1ncnc(C2CC2)c1-c1ncc2cnn(Cc3ccc(-c4nc(C(F)(F)F)cn4C(C)C)cc3)c2n1 + CN(C)c1ccc(Nc2c3ccc(NC(=O)CCN4CCCC4)cc3nc3cc(NC(=O)CCN4CCCC4)ccc23)cc1,IC50,second compound 0.0316 µM,> 10 µM
same,IC50,second compound 0.1 µM,> 10 µM
same,IC50,second compound 0.316 µM,> 10 µM
same,IC50,second compound 1 µM,> 10 µM
same,IC50,second compound 3.16 µM,> 10 µM
same,IC50,second compound 10 µM,5.62 µM
same,"viability, T/C","second compound 0.0316 µM, first compound 0.0316 µM",103%
same,"viability, T/C","second compound 0.0316 µM, first compound 0.1 µM",97%
same,"viability, T/C","second compound 0.0316 µM, first compound 0.316 µM",108%
same,"viability, T/C","second compound 0.0316 µM, first compound 1 µM",98.1%
same,"viability, T/C","second compound 0.0316 µM, first compound 3.16 µM",100%
same,"viability, T/C","second compound 0.0316 µM, first compound 10 µM",109%
same,"viability, T/C","second compound 0.1 µM, first compound 0.0316 µM",103%
same,"viability, T/C","second compound 0.1 µM, first compound 0.1 µM",100%
same,"viability, T/C","second compound 0.1 µM, first compound 0.316 µM",105%
same,"viability, T/C","second compound 0.1 µM, first compound 1 µM",105%
same,"viability, T/C","second compound 0.1 µM, first compound 3.16 µM",92.7%
same,"viability, T/C","second compound 0.1 µM, first compound 10 µM",107%
same,"viability, T/C","second compound 0.316 µM, first compound 0.0316 µM",103%
same,"viability, T/C","second compound 0.316 µM, first compound 0.1 µM",102%
same,"viability, T/C","second compound 0.316 µM, first compound 0.316 µM",105%
same,"viability, T/C","second compound 0.316 µM, first compound 1 µM",100%
same,"viability, T/C","second compound 0.316 µM, first compound 3.16 µM",92%
same,"viability, T/C","second compound 0.316 µM, first compound 10 µM",106%
same,"viability, T/C","second compound 1 µM, first compound 0.0316 µM",93.9%
same,"viability, T/C","second compound 1 µM, first compound 0.1 µM",99.5%
same,"viability, T/C","second compound 1 µM, first compound 0.316 µM",104%
same,"viability, T/C","second compound 1 µM, first compound 1 µM",92.7%
same,"viability, T/C","second compound 1 µM, first compound 3.16 µM",98.3%
same,"viability, T/C","second compound 1 µM, first compound 10 µM",101%
same,"viability, T/C","second compound 3.16 µM, first compound 0.0316 µM",102%
same,"viability, T/C","second compound 3.16 µM, first compound 0.1 µM",98.2%
same,"viability, T/C","second compound 3.16 µM, first compound 0.316 µM",106%
same,"viability, T/C","second compound 3.16 µM, first compound 1 µM",100%
same,"viability, T/C","second compound 3.16 µM, first compound 3.16 µM",106%
same,"viability, T/C","second compound 3.16 µM, first compound 10 µM",110%
same,"viability, T/C","second compound 10 µM, first compound 0.0316 µM",102%
same,"viability, T/C","second compound 10 µM, first compound 0.1 µM",103%
same,"viability, T/C","second compound 10 µM, first compound 0.316 µM",109%
same,"viability, T/C","second compound 10 µM, first compound 1 µM",107%
same,"viability, T/C","second compound 10 µM, first compound 3.16 µM",91.7%
same,"viability, T/C","second compound 10 µM, first compound 10 µM",8.22%
